Data from US20040156869A1, “2-substituted quinazolin-4-ylamine analogues” (Neurogen Corporation, priority 2002, published 2004).

target: human capsaicin receptor (VR1) (Homo sapiens, UniProt Q8NER1); assay: Capsaicin receptor binding assay ([3H]RTX competition, VR1-transfected HEK293 membranes)
Sequence (Q8NER1 whole entry): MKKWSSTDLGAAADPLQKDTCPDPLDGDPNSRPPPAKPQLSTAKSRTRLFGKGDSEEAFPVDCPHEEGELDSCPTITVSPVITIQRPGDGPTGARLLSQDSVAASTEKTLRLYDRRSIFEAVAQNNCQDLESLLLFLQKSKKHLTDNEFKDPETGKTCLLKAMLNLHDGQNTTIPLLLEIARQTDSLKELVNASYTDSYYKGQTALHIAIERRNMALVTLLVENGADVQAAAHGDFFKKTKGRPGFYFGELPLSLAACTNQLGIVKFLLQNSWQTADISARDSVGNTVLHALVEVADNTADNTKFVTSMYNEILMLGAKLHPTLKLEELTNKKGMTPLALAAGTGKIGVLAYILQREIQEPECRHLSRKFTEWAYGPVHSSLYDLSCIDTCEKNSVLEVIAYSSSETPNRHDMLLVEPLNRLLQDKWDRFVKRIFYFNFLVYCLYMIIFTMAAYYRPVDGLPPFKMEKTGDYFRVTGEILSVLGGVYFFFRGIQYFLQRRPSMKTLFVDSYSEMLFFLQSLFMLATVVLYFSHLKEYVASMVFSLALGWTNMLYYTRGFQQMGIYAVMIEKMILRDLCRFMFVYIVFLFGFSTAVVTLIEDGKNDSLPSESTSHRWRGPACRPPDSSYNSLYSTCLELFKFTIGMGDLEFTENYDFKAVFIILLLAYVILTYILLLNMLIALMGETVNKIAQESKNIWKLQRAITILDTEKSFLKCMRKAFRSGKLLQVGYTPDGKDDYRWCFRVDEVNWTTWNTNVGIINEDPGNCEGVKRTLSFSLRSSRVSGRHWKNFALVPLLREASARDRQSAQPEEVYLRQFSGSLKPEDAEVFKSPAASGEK

Question: For `CCCCCN(CCCCC)Cc1nc(Nc2ccc(C(F)(F)F)cc2)c2ccc(-c3ncccc3C(F)(F)F)cc2n1` [Compound 345, [2-Dipentylaminomethyl-7-(3-trifluoromethyl-pyridin-2-yl)-quinazolin-4-yl]-(4-trifluoromethyl-phenyl)-amine], which Ki is on record?
Answer: Its Ki is less than 1000 nM.

Question: With `Cc1cccnc1-c1ccc2c(Nc3ccc(C(C)C)cc3)nc(COC(C)C)nc2c1` [Compound 105, [2-Isopropoxymethyl-7-(3-methyl-pyridin-2-yl)-quinazolin-4-yl]-(4-isopropyl-phenyl)-amine] as the molecule, how does the Ki read?
Answer: Its Ki is less than 1000 nM.

Question: `C[C@@H]1CN(Cc2nc(Nc3ccc(C(C)(C)C)cc3)c3ccc(-c4ccncc4)cc3n2)C[C@H](C)O1` [Compound 675, (4-tert-Butyl-phenyl)-[2-(2,6-dimethyl-morpholin-4-ylmethyl)-7-pyridin-4-yl-quinazolin-4-yl]-amine (cis)] was tested. Which Ki did it give?
Answer: The Ki was less than 1000 nM.

Question: How did the Ki turn out when `CN1CCN(Cc2cc(Nc3ccc(C(F)(F)F)cc3)c3ccc(-c4ncccc4C(F)(F)F)nc3n2)CC1` [Compound 817, [2-(4-Methyl-piperazin-1-ylmethyl)-7-(3-trifluoromethyl-pyridin-2-yl)-[1,8]naphthyridin-4-yl]-(4-trifluoromethyl-phenyl)-amine] was run?
Answer: Its Ki is less than 1000 nM.

Question: With `CCCCCCN(C)CCc1nc(Nc2ccc(C(F)(F)F)cc2)c2ccc(-c3ncccc3C(F)(F)F)cc2n1` [Compound 419, [2-[(Hexyl-methyl-amino)-ethyl]-7-(3-trifluoromethyl-pyridin-2-yl)-quinazolin-4-yl]-(4-trifluoromethyl-phenyl)-amine] as the molecule, how does the Ki read?
Answer: Its Ki is less than 1000 nM.

Question: Which Ki does the source give for `COc1ncc(-c2ccc3c(Nc4ccc(C(C)(C)C)cc4)nc(CN4C[C@@H](C)O[C@@H](C)C4)nc3c2)c(OC)n1` [Compound 678, (4-tert-Butyl-phenyl)-[7-(2,4-dimethoxy-pyrimidin-5-yl)-2-(2,6-dimethyl-morpholin-4-ylmethyl)-quinazolin-4-yl]-amine (cis)] here?
Answer: The Ki was less than 1000 nM.

Question: How did the Ki turn out when `CCC(c1ccccc1)N(C)Cc1nc(Nc2ccc(C(F)(F)F)nc2)c2ccc(-c3ncccc3C(F)(F)F)cc2n1` (stereo not shown) [Compound 350, [2-{[Methyl-1-(1-phenyl-propyl)-amino]-methyl}-7-(3-trifluoromethyl-pyridin-2-yl)-quinazolin-4-yl]-(6-trifluoromethyl-pyridin-3-yl)-amine] was run?
Answer: Its Ki is less than 1000 nM.

Question: How did the Ki turn out when `CN(C)CC(C)(C)COCc1nc(Nc2ccc(C(F)(F)F)cc2)c2ccc(-c3ncccc3C(F)(F)F)cc2n1` [Compound 123, [2-(3-Dimethylamino-2,2-dimethyl-propoxymethyl)-7-(3-trifluoromethyl-pyridin-2-yl)-quinazolin-4-yl]-(4-trifluoromethyl-phenyl)-amine] was run?
Answer: Its Ki is less than 1000 nM.

Question: Which Ki does the source give for `CN(C)CCOCc1nc(Nc2ccc(C(F)(F)F)cc2)c2ccc(-c3ncccc3C(F)(F)F)cc2n1` [Compound 87, [2-(2-Dimethylamino-ethoxymethyl)-7-(3-trifluoromethyl-pyridin-2-yl)-quinazolin-4-yl]-(4-trifluoromethyl-phenyl)-amine] here?
Answer: Its Ki is less than 1000 nM.

Question: `COCCNC(=O)c1nc(Nc2ccc(C(F)(F)F)cc2)c2ccc(-c3ncccc3C(F)(F)F)cc2n1` [Compound 762, 4-(4-Trifluoromethyl-phenylamino)-7-(3-trifluoromethyl-pyridin-2-yl)-quinazoline-2-carboxylic acid (2-methoxy-ethyl)-amide] was tested. Which Ki did it give?
Answer: The Ki was less than 1000 nM.

Question: How did the Ki turn out when `CC(C)COCc1nc(Nc2ccc(C(F)(F)F)cc2)c2ccc(-c3ncccc3Cl)nc2n1` [Compound 176, [7-(3-Chloro-pyridin-2-yl)-2-isobutoxymethyl-pyrido[2,3-d]pyrimidin-4-yl]-(4-trifluoromethyl-phenyl)-amine] was run?
Answer: The Ki was less than 1000 nM.

Question: `COCc1nc(Nc2ccc(C(C)C)cc2)c2ncc(-c3ncccc3Cl)cc2n1` [Compound 66, [7-(3-Chloro-pyridin-2-yl)-2-methoxymethyl-pyrido[3,2-d]pyrimidin-4-yl]-(4-isopropyl-phenyl)-amine] was tested. Which Ki did it give?
Answer: The Ki was less than 1000 nM.

Question: How did the Ki turn out when `CN1C2CCC1CC(NC(=O)c1nc(Nc3ccc(C(F)(F)F)cc3)c3ccc(-c4ncccc4C(F)(F)F)nc3n1)C2` (stereo not shown) [Compound 445, 4-(4-Trifluoromethyl-phenylamino)-7-(3-trifluoromethyl-pyridin-2-yl)-pyrido[2,3-d]pyrimidine-2-carboxylic acid (8-methyl-8-aza-bicyclo[3.2.1]oct-3-yl)-amide] was run?
Answer: Its Ki is less than 1000 nM.

Question: For `CC(C)c1ccc(Nc2nc(CN3CCO[C@H](C)C3)nc3cc(-c4ncccc4Cl)ccc23)cc1` [Compound 673, (R)-[7-(3-Chloro-pyridin-2-yl)-2-(2-methyl-morpholin-4-ylmethyl)-quinazolin-4-yl]-(4-isopropyl-phenyl)-amine], which Ki is on record?
Answer: Its Ki is less than 1000 nM.

Question: How did the Ki turn out when `FC(F)(F)c1ccc(Nc2nc(C3CCN(Cc4ccncc4)CC3)nc3cc(-c4ncccc4C(F)(F)F)ccc23)cc1` [Compound 691, [2-(1-Pyridin-4-ylmethyl-piperidin-4-yl)-7-(3-trifluoromethyl-pyridin-2-yl)-quinazolin-4-yl]-(4-trifluoromethyl-phenyl)-amine] was run?
Answer: Its Ki is less than 1000 nM.

Question: With `CN(C)CC(O)COCc1nc(Nc2ccc(C(F)(F)F)cc2)c2ccc(-c3ncccc3C(F)(F)F)cc2n1` (stereo not shown) [Compound 144, 1-Dimethylamino-3-[4-(4-trifluoromethyl-phenylamino)-7-(3-trifluoromethyl-pyridin-2-yl)-quinazolin-2-ylmethoxy]-propan-2-ol] as the molecule, how does the Ki read?
Answer: The Ki was less than 1000 nM.

Question: For `CC(=O)c1ccccc1-c1ccc2c(Nc3ccc(C(F)(F)F)cc3)nc(CN3C[C@@H](C)O[C@@H](C)C3)nc2c1` [Compound 639, 1-{2-[2-(2,6-Dimethyl-morpholin-4-ylmethyl)-4-(4-trifluoromethyl-phenylamino)-quinazolin-7-yl]-phenyl}-ethanone (cis)], which Ki is on record?
Answer: The Ki was less than 1000 nM.

Question: With `CC1CC(C)CC(NC(=O)c2nc(Nc3ccc(C(F)(F)F)cc3)c3ccc(-c4ncccc4C(F)(F)F)nc3n2)C1` (stereo not shown) [Compound 470, 4-(4-Trifluoromethyl-phenylamino)-7-(3-trifluoromethyl-pyridin-2-yl)-pyrido[2,3-d]pyrimidine-2-carboxylic acid (3,5-dimethyl-cyclohexyl)-amide] as the molecule, how does the Ki read?
Answer: The Ki was less than 1000 nM.

Question: How did the Ki turn out when `Cc1cccnc1-c1ccc2c(Nc3ccc(C(C)C)cc3)nc(COC3CCOCC3)nc2c1` [Compound 106, (4-Isopropyl-phenyl)-[7-(3-methyl-pyridin-2-yl)-2-(tetrahydro-pyran-4-yloxymethyl)-quinazolin-4-yl]-amine] was run?
Answer: The Ki was less than 1000 nM.

Question: For `CN(Cc1nc(Nc2ccc(C(F)(F)F)nc2)c2ccc(-c3ncccc3C(F)(F)F)cc2n1)C1CCCCC1` [Compound 381, [2-[(Cyclohexyl-methyl-amino)-methyl]-7-(3-trifluoromethyl-pyridin-2-yl)-quinazolin-4-yl]-(6-trifluoromethyl-pyridin-3-yl)-amine], which Ki is on record?
Answer: Its Ki is less than 1000 nM.

Question: How did the Ki turn out when `CN1CCC(c2nc(Nc3ccc(C(F)(F)F)cc3)c3ccc(-c4ncccc4Cl)nc3n2)CC1` [Compound 771, [7-(3-Chloro-pyridin-2-yl)-2-(1-methyl-piperidin-4-yl)-pyrido[2,3-d]pyrimidin-4-yl]-(4-trifluoromethyl-phenyl)-amine] was run?
Answer: Its Ki is less than 1000 nM.

Question: For `CCN(CC)C(=O)C(C)(C)c1ccc(Nc2nc(COC)nc3nc(-c4ncccc4C(F)(F)F)ccc23)cc1` [Compound 221, N,N-Diethyl-2-{4-[2-methoxymethyl-7-(3-trifluoromethyl-pyridin-2-yl)-pyrido[2,3-d]pyrimidin-4-ylamino]-phenyl}-isobutyramide], which Ki is on record?
Answer: Its Ki is less than 1000 nM.

Question: For `C[C@@H]1CN(Cc2nc(Nc3ccc(C(F)(F)F)cc3)c3ccc(-c4ncccc4C(F)(F)F)nc3n2)C[C@H](C)O1` [Compound 748, [2-(2,6-Dimethyl-morpholin-4-ylmethyl)-7-(3-trifluoromethyl-pyridin-2-yl)-pyrido[2,3-d]pyrimidin-4-yl]-(4-trifluoromethyl-phenyl)-amine (cis)], which Ki is on record?
Answer: The Ki was less than 1000 nM.

Question: With `COCc1nc(Nc2ccc(C(C)(C)C)cc2)c2ccc(-c3ncccc3C(F)(F)F)cc2n1` [Compound 73, (4-tert-Butyl-phenyl)-[2-methoxymethyl-7-(3-trifluoromethyl-pyridin-2-yl)-quinazolin-4-yl]-amine] as the molecule, how does the Ki read?
Answer: Its Ki is less than 1000 nM.

Question: With `C=CCN(C)Cc1nc(Nc2ccc(C(F)(F)F)cc2)c2ncc(-c3ncccc3C(F)(F)F)cc2n1` [Compound 662, [2-[(Allyl-methyl-amino)-methyl]-7-(3-trifluoromethyl-pyridin-2-yl)-pyrido[3,2-d]pyrimidin-4-yl]-(4-trifluoromethyl-phenyl)-amine] as the molecule, how does the Ki read?
Answer: Its Ki is less than 1000 nM.

Question: How did the Ki turn out when `CCOCc1nc(Nc2ccc(C(C)(C)C)cc2)c2ccc(-c3ncccc3Cl)cc2n1` [Compound 79, (4-tert-Butyl-phenyl)-[7-(3-chloro-pyridin-2-yl)-2-ethoxymethyl-quinazolin-4-yl]-amine] was run?
Answer: The Ki was less than 1000 nM.

Question: For `OCCC1CCN(Cc2nc(Nc3ccc(C(F)(F)F)cc3)c3ccc(-c4ncccc4C(F)(F)F)cc3n2)CC1` [Compound 494, 2-{1-[4-(4-Trifluoromethyl-phenylamino)-7-(3-trifluoromethyl-pyridin-2-yl)-quinazolin-2-ylmethyl]-piperidin-4-yl}-ethanol], which Ki is on record?
Answer: Its Ki is less than 1000 nM.

Question: For `CCCCN(CCCC)Cc1nc(Nc2ccc(C(F)(F)F)nc2)c2ccc(-c3ncccc3C(F)(F)F)cc2n1` [Compound 377, [2-Dibutylaminomethyl-7-(3-trifluoromethyl-pyridin-2-yl)-quinazolin-4-yl]-(6-trifluoromethyl-pyridin-3-yl)-amine], which Ki is on record?
Answer: The Ki was less than 1000 nM.

Question: How did the Ki turn out when `COC(=O)CCc1nc(Nc2ccc(C(F)(F)F)nc2)c2ccc(-c3ncccc3C(F)(F)F)cc2n1` [Compound 18, 3-[7-(3-Trifluoromethyl-pyridin-2-yl)-4-(6-trifluoromethyl-pyridin-3-ylamino)-quinazolin-2-yl]-propionic acid methyl ester] was run?
Answer: Its Ki is less than 1000 nM.

Question: For `Cc1cccnc1-c1ccc2c(Nc3ccc(C(F)(F)F)cc3)nc(CN3CC[C@H](CO)C3)nc2c1` [Compound 734, (S)-{1-[7-(3-Methyl-pyridin-2-yl)-4-(4-trifluoromethyl-phenylamino)-quinazolin-2-ylmethyl]-pyrrolidin-3-yl}-methanol], which Ki is on record?
Answer: The Ki was less than 1000 nM.

Question: For `CC(C)COCc1nc(Nc2ccc(F)c(Cl)c2)c2ccc(-c3ncccc3C(F)(F)F)nc2n1` [Compound 275, (3-Chloro-4-fluoro-phenyl)-[2-isobutoxymethyl-7-(3-trifluoromethyl-pyridin-2-yl)-pyrido[2,3-d]pyrimidin-4-yl]-amine], which Ki is on record?
Answer: The Ki was less than 1000 nM.
